# Source: publication PMC5583658, “6,7-dimethoxy-1,2,3,4-tetrahydro-isoquinoline-3-carboxylic acid attenuates heptatocellular carcinoma in rats with NMR-based metabolic perturbations” (Future Science OA, 2017)
# Experiments:
# Format in all cases: in vivo, albino Wistar rats
# [1] = system: diethylnitrosamine-induced hepatocarcinogenic rats; test: ALT and AST in plasma of DEN-induced HCC rats; conditions: DEN+5-FU 10 mg/kg intraperitoneally, 15 days, mean ± SD, n = 6
# Procedure: (§1) All animals were randomly divided into five groups of six animals each. Drugs were suspended in 0.25% CMC, subjected to 28 days’ treatment orally and divided as follows: Group I: 0.25% CMC (2 ml/kg), Group II: DEN (8 mg/kg, intraperitoneally), Group III: DEN+5-fluorouracil (5-FU, 10 mg/kg, intraperitoneally), Group IV: DEN+M1 (50 mg/kg, orally) and Group V: DEN+M1 (100 mg/kg, orally). The procedure to induce HCC was adopted from a paper by Song et al. where it is shown that DEN produces HCC at 8 mg/kg intraperitoneal injection for 28 days to albino Wistar rats. After initial 1 week of adaptive inhabitation, all rats of group II–V were administered with DEN (8 mg/kg, intraperitoneally) for 28 days. After 28 days, 5-FU and M1 were given for 15 days as mentioned above for group III–V. At the end of the experimental period, animals were sacrificed by cervical decapitation and livers were dissected out immediately, rinsed in ice cold saline and stored at -20°C for further studies. The serum was collected, processed and stored for further analysis.
# (§2) Liver function biomarkers like aspartate aminotransferase (AST), alanine aminotransferase (ALT) were also measured in serum using commercially available kit from Ebra Diagonesis Pvt Ltd, Germany. The oxidative parameters like superoxide dismutase (SOD), thiobarbituric acid reactive substances (TBARS), protein carbonyl (PC), SOD [14], tissue catalase (CAT) and glutathione (GSH) levels were estimated in liver tissue in the similar experiment. The total protein content of each sample was measured using the Bradford reagent and bovine serum albumin was used as a standard. Conjugated bilirubin and biliverdin in liver were measured as per the following procedure stated earlier in the literature with slight modifications.
# [2] = system: diethylnitrosamine-induced hepatocarcinogenic rats; test: 1H-NMR-based serum metabolic profiling; conditions: rat serum; DEN+5-FU 10 mg/kg intraperitoneally
# Procedure: as §1
# All serum samples were thawed at room temperature, 250 μl of serum was taken and mixed with 250 μl of 0.9% saline sodium-phosphate buffer of strength 50 mM, pH 7.4 prepared in D2O. Then, the samples were centrifuged at 10,000 rpm for 5 min to remove any precipitates before acquiring the NMR data. A total 400 μl of the supernatant sample was used in 5 mm NMR tubes (Wilmad Glass, USA) for data acquisition with a co-axial insert containing the known concentration of TSP (sodium salt of 3-trimethylsilyl-(2,2,3,3-d4)-propionic acid) i.e. 0.1% was used as external standard reference to aid metabolite quantification for NMR experiment. Deuterium oxide (D2O; as a co-solvent and to provide a deuterium field/frequency lock) and sodium salt of trimethylsilylpropionic acid-d4 (TSP) used for NMR experiments, were purchased from Sigma-Aldrich (RI, USA).
# All NMR spectra were recorded at 298 K on Bruker Biospin Avance-III 800 MHz NMR spectrometer operating at proton frequency of 800.21 MHz, equipped with CryoProbe and an actively shielded gradient unit with a maximum gradient-strength output of […]. The raw NMR data were processed in Topspin-2.1 (Bruker NMR data Processing Software). For each serum sample, one-dimensional ^1H-NMR and diffusion edited ^1H NMR spectra were recorded using the Carr–Purcell–Meiboom–Gill (CPMG) pulse sequence (cpmgpr1d, standard Bruker pulse program) with pre-saturation of the water peak through irradiating it continuously during the recycle delay (RD) of 5 sec, and the bipolar pulse pair longitudinal eddy current delay (BPP-LED) sequence, respectively. Each CPMG spectrum consisted of the accumulation of 128 scans and lasted for approximately 15 minutes. To remove broad signals from triglycerides, proteins, cholesterols and phospholipids, a total spin–spin relaxation time of 60 ms (n = 300 and 2τ=[…]) with a line broadening factor of 0.3 Hz was applied. For diffusion edited (DE)^1H NMR pulse sequence, the square gradients of 70% of the maximum gradient strength (56 G/cm) and 2 ms duration (followed by a delay of 200 μs to allow for the decay of eddy currents) were used. Diffusion time of 120 ms was used to attenuate the signals from low molecular weight compounds without affecting the lipid signals. All the spectra were processed using Topspin-2.1 (Bruker NMR data Processing Software) using standard Fourier Transformation (FT) procedure following manual phase and baseline-correction. Prior to FT, each FID was zero-filled to 4096 data points and a sine-bell apodisation function was applied. After FT, the chemical shifts were referenced internally to methyl peak of L-lactate (at δ=1.33 ppm). All recorded spectra were visually inspected for acceptability and subjected to multivariate statistical analysis to identify the altered metabolic pattern. […]
# [3] = system: diethylnitrosamine-induced hepatocarcinogenic rats; test: Oxidative stress parameters (SOD, CAT, GSH, PC, MDA) in liver of DEN-induced HCC rats; conditions: DEN+5-FU 10 mg/kg intraperitoneally, 15 days, mean ± SD, n = 6
# Procedure: as §1, §2
# [4] = system: diethylnitrosamine-induced hepatocarcinogenic rats; test: Histopathological studies of liver (hematoxylin and eosin); conditions: DEN+5-FU 10 mg/kg intraperitoneally; 40X
# Procedure: as §1
# Histopathological studies were also performed to find out the morphological changes of liver cells after M1 administration. Liver tissues from each group were assessed for their morphological changes using hematoxylin and eosin staining. The tissues were preserved in 10% formalin overnight. […]
# [5] = system: diethylnitrosamine-induced hepatocarcinogenic rats; test: Bilirubin and biliverdin in liver of DEN-induced HCC rats
# Procedure: as §1, §2
# [6] = DEN+5-FU 10 mg/kg intraperitoneally, 15 days, mean ± SD, n = 6
smiles,measurement,setting,value
"O=c1[nH]cc(F)c(=O)[nH]1 [5-FU, 5-fluorouracil, reference compound]",ALT,[1],68.36 ± 5.32 U/L
same,AST,[1],61.58 ± 4.17 U/L
same,Variation with respect to DEN: Acac (chemical shift 2.28),[2],↑
same,Variation with respect to DEN: Ace (chemical shift 1.92),[2],↓
same,Variation with respect to DEN: Acet (chemical shift 2.23),[2],↑
same,Variation with respect to DEN: Ala (chemical shift 1.48),[2],↓
same,Variation with respect to DEN: Betaine (chemical shift 3.265),[2],↓
same,Variation with respect to DEN: Chol (chemical shift 3.22),[2],↓
same,Variation with respect to DEN: Cr (chemical shift 3.03),[2],↑
same,"Variation with respect to DEN: Glucose (chemical shift 3.23–3.92, 4.63, 5.21)",[2],↓
same,Variation with respect to DEN: L1 (LDL) (chemical shift 0.83–0.87),[2],↓
same,Variation with respect to DEN: L2 (VLDL) (chemical shift 0.87–0.90),[2],↑
same,Variation with respect to DEN: L3 (LDL) (chemical shift 1.23–1.27),[2],↓
same,Variation with respect to DEN: L4 (VLDL) (chemical shift 1.27–1.30),[2],↑
same,Variation with respect to DEN: L6 (chemical shift 2.00),[2],↓
same,Variation with respect to DEN: L8 (chemical shift 2.74),[2],↓
same,Variation with respect to DEN: L9 (chemical shift 5.28),[2],↓
same,Variation with respect to DEN: Lys (chemical shift 1.89),[2],↓
same,Variation with respect to DEN: NAG (chemical shift 2.02),[2],↑
same,Variation with respect to DEN: OAG (chemical shift 2.13),[2],↑
same,Variation with respect to DEN: Pyr (chemical shift 2.37),[2],↓
same,Variation with respect to DEN: Tyr (chemical shift 6.89),[2],↓
same,CAT,[3],9.30 ± 0.35 nM of H2O2/min/μg of protein
same,MDA,[3],46.24 ± 0.26 nM/μg of protein
same,PC,[3],0.35 ± 0.07 μM/μg of protein
same,Reduced GSH,[3],7.30 ± 0.39 μM/μg of protein
same,SOD,[3],6.99 ± 0.43 U/μg of protein
same,liver histopathology,[4],less ruptured and denatured cells (RC and DC) than toxic control
same,bilirubin level,"[5]; 5-FU-treated rats, text value (toxic ∼60 ng)",~35 ng
same,Bilirubin,[5]; [6],34.70 ± 2.12 ng/μg of protein
same,Biliverdin,[5]; [6],18.39 ± 3.11 ng/μg of protein
